Results from patent US11186577B2, “Vasopressin receptor antagonists and products and methods related thereto” (BlackThorn Therapeutics, Inc., priority 2017, dated 2021).
Like-named read-outs stand apart in the source and are kept apart here.

Tests used:
Format in all cases: cell-based
[1] = target: human Oxytocin Receptor (hOTR) (Homo sapiens (Human), UniProt P30559); experiment: Oxytocin receptor antagonist assay (oxytocin-evoked calcium, FLIPR, CHEM-1-hOTR cells); settings: read-out: OT IC50
Experimental: This assay was performed in CHEM-1 cells expressing the human Oxytocin Receptor (hOTR) to determine the inhibitory effect of the compounds of the invention on the human Oxytocin receptor. Oxytocin evokes an increase in intracellular calcium in CHEM-1-hOTR cells which is measured in a fluorescence assay on the FLIPR^TETRA using calcium sensitive dyes. Test compounds were assessed for their ability to affect the magnitude of the response to oxytocin, with antagonists showing a concentration-dependent reduction in the oxytocin-mediated fluorescence.
CHEM-1-hOTR ready was used to assay frozen cells (Eurofins #HTS090RTA) which are supplied with a proprietary Media Component.
Cells were thawed in a 37° C. water bath and diluted with the supplied Media Component to a final volume of 10 ml. The cell suspension was centrifuged at 1000 rpm for 3 min at room temperature and the supernatant was discarded. The cell pellet was resuspended in Media Component (10.5 ml) and the cells (25 μL) were dispensed into a poly-D-lysine coated black, clear bottomed, 384-well plate. The plates were incubated overnight at 37° C., 5% CO2.
(§1) At the start of each assay day the potency of oxytocin was assessed and an EC80 concentration was determined for subsequent compound profiling. Assays were performed using a two-step addition protocol on the FLIPR^TETRA; first addition of 5 μl of control or test compound at 10× final in assay buffer with 15 min incubation at 37° C., 5% CO2 followed by 10 μl of oxytocin at 6× final concentration in assay buffer. Changes in fluorescence were monitored for 3 min after both additions on the FLIPR^TETRA using 470-495 nm excitation and 515-575 nm emission wavelengths. The assay buffer consisted of HBSS (+Ca/+Mg) supplemented with 20 mM HEPES, and for the preparation of the oxytocin agonist only, 0.1% w/v bovine serum albumin. The assay was initiated by the removal of growth media from the cells and replaced with 45 μl of Calcium-6 dye (Molecular Devices) prepared at 1× in assay buffer. Cells were loaded with dye for 60-90 min at 37° C., 5% CO2 before initiation of the FLIPR^TETRA protocol. […] For compound profiling, test compounds were first serially diluted in DMSO (10-point curve, 1:3 dilutions) then diluted 33.3-fold in assay buffer prior to addition to the dye loaded cells on the FLIPR^TETRA. At the end of the incubation period 10 μl of oxytocin in assay buffer containing 0.1% BSA was added at the previously determined EC80 concentration.
In-plate controls for the assay include a L-368,899 concentration-response curve as the reference OTR antagonist and an oxytocin concentration-response curve to confirm the reproducibility of the EC80 used for the compound challenge.

[2] = target: human Arginine Vasopressin Receptor 1a (AVPR1a) (Homo sapiens (Human), UniProt P37288); experiment: Vasopressin V1A receptor antagonist assay (AVP-evoked calcium, FLIPR, CHO-AVPR1a cells)
human Arginine Vasopressin Receptor 1a (AVPR1a), sequence (P37288 whole entry): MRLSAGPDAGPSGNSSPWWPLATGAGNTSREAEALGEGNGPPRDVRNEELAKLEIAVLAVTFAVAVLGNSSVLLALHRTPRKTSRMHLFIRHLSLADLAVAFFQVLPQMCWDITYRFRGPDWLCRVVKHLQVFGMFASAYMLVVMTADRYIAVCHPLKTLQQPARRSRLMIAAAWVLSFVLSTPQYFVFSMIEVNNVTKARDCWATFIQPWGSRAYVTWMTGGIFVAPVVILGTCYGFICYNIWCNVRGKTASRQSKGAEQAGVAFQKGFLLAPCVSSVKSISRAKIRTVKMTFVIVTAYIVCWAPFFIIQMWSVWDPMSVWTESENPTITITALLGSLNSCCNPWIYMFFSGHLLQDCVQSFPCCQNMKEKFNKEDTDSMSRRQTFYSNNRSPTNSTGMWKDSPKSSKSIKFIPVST
Experimental: The purpose of this assay was to determine the inhibitory effect of synthesized compounds on the Vasopressin V1a receptor. The assay as performed in Chinese Hamster Ovary (CHO) cells expressing the human Arginine Vasopressin Receptor 1a (AVPR1a). Arginine Vasopressin (AVP) evokes an increase in intracellular calcium in CHO-AVPR1a cells which is measured in a fluorescence assay on the FLIPR^TETRA using calcium sensitive dyes. Test compounds were assessed for their ability to affect the magnitude of the response to AVP, with antagonists showing a concentration-dependent reduction in the AVP-mediated fluorescence. Compounds were tested in duplicate in a 10-point, 1:3 dilution series starting at a nominal concentration of 3 μM in the assay.
CHO-AVPR1a cells were maintained in routine culture in T175 Flasks at 37° C., 5% CO2. The growth medium consists of Ham's F12 media supplemented with 10% v/v fetal bovine serum, 1× non-essential amino acids, and 0.4 mg/ml Geneticin G418.
(§2) On day one, cells were harvested from T175 flasks when they are 80-90% confluent by first washing the cell monolayer with PBS and then dissociated using trypsin 0.05%/EDTA (3 mL for a T175 Flask). The flasks were incubated at room temperature until the cells detached. To the cell suspension, 10 ml of growth media was added and the cell density determined using the Vi-Cell automated cell counter. The cells were spun at 1000 rpm for 3 minutes, then the supernatant was carefully removed and discarded. The cell pellet was re-suspended at 6.0e^5 cells/ml in growth media. 25 μL of cells in growth media was dispensed into each well (15,000 cells per well) of a poly-D-lysine coated black, clear bottomed, 384-well plate. The plates were incubated at 37° C., 5% CO2 overnight.
At the start of each assay day, the potency of AVP was assessed and an EC80 concentration determined for subsequent compound profiling. Assays were performed using a two-step addition protocol on the FLIPR^TETRA; first addition of 5 μl of control or test compound at 10× final in assay buffer with 15 min incubation at 37° C., 5% CO2 followed by 10 μl of AVP at 6× final concentration in assay buffer. […] The assay buffer consisted of HBSS (+Ca/+Mg) supplemented with 20 mM HEPES, and for the preparation of the AVP agonist only, 0.1% w/v bovine serum albumin. The assay was initiated by the removal of growth media from the cells and replacement with 45 μl of Calcium-6 dye (Molecular Devices) prepared at 1× in assay buffer. Cells are loaded with dye for 60-90 min at 37° C., 5% CO2 before initiation of the FLIPR^TETRA protocol. […] At the end of the incubation period, 10 μl of AVP in assay buffer containing 0.1% BSA was added at the previously determined EC80 concentration.

[3] = target: human Arginine Vasopressin Receptor 1b (AVPR1b) (Homo sapiens (Human), UniProt P47901); experiment: Vasopressin V1B receptor antagonist assay (AVP-evoked calcium, FLIPR, CHO-AVPR1b cells)
human Arginine Vasopressin Receptor 1b (AVPR1b), sequence (P47901 whole entry): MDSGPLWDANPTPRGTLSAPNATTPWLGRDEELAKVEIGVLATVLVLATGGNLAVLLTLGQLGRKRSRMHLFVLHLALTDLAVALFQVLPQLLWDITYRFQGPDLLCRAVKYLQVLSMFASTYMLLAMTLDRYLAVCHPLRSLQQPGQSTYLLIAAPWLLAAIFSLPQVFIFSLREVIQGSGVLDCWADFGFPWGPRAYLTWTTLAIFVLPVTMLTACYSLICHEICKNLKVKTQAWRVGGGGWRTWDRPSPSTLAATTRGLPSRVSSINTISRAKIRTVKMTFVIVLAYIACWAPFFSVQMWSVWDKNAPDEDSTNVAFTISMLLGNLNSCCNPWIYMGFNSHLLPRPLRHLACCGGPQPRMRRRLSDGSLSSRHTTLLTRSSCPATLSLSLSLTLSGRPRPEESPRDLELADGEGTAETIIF
Experimental: The purpose of the assay is to determine the inhibitory effect of synthesized compounds on the Vasopressin V1b receptor. The assay was performed in Chinese Hamster Ovary (CHO) cells expressing the human Arginine Vasopressin Receptor 1b (AVPR1b). Arginine Vasopressin (AVP) evokes an increase in intracellular calcium in CHO-AVPR1b cells which is measured in a fluorescence assay on the FLIPR^TETRA using calcium sensitive dyes. Test compounds were assessed for their ability to affect the magnitude of the response to AVP, with antagonists showing a concentration-dependent reduction in the AVP-mediated fluorescence.
CHO-AVPR1b cells were maintained in routine culture in T175 Flasks at 37° C., 5% CO2. The growth medium consisted of Ham's F12 media supplemented with 10% v/v fetal bovine serum, 1× non-essential amino acids, and 0.4 mg/ml Geneticin G418.
as §2, with “Cells were” for “On day one, cells were”, “they were” for “they are”
as §1, with “day,” for “day”, “AVP is” for “oxytocin was”, “concentration” for “concentration was”, “AVP” for “oxytocin”, “replacement” for “replaced”
In-plate controls for the assay include a Nelivaptan concentration-response curve as the reference V1b antagonist and an AVP concentration-response curve to confirm the reproducibility of the EC80 used for the compound challenge.

human Oxytocin Receptor (hOTR), sequence (P30559 whole entry): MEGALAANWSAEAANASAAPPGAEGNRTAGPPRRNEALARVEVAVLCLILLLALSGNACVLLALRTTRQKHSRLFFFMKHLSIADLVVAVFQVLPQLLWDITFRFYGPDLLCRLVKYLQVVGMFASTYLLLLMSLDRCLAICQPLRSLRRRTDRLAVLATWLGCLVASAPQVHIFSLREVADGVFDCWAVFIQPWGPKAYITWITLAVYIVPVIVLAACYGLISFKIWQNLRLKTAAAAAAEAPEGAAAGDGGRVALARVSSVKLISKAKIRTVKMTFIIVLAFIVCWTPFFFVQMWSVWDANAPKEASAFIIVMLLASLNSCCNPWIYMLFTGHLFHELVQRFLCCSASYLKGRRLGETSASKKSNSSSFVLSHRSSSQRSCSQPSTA

SMILES	IC50 [1] [nM]	IC50 ([2]; read-out: V1a IC50) [nM]	IC50 [2] [nM]	IC50 [3] [nM]
CCC(=O)N1Cc2cc(Cl)ccc2-n2c(nnc2C2CC3(C2)CN(c2ccc(F)nn2)C3)C1 [compound 112]	> 1000	< 100	–	–
CN1Cc2cc(Cl)ccc2-n2c(nnc2C2CC3(C2)CN(c2cccnc2)C3)C1 [compound 5]	> 1000	–	100 to 500	–
CN1Cc2cc(Cl)ccc2-n2c(nnc2C2CC3(C2)CN(C(=O)C2COC2)C3)C1 [compound 14]	> 1000	> 1000	–	–
CCC(=O)N1Cc2cc(Cl)ccc2-n2c(nnc2C2CC3(C2)CN(C(=O)C2CCC2)C3)C1 [compound 37]	> 1000	< 100	–	–
CCOC(=O)N1Cc2cc(Cl)ccc2-n2c(C3CC4(C3)CN(c3nccc(C(F)F)n3)C4)nnc2C1C (centres unmarked) [compound 189]	> 1000	< 100	–	–
CC1c2nnc(C3CC4(C3)CN(c3ccc(F)cn3)C4)n2-c2ccc(Cl)cc2CN1C(=O)OC(CF)CF (single isomer, unassigned) [Cpd 203B]	> 1000	> 1000	–	–
CC1c2nnc(C3CC4(C3)CN(c3ncccn3)C4)n2-c2ccc(Cl)cc2CN1C(=O)OC1(C)CC1 (single isomer, unassigned) [Cpd 205B]	> 1000	> 1000	–	> 1000
Cc1cccc(N2CC3(CC(c4nnc5n4-c4ccc(Cl)cc4CN(C)C5)C3)C2)n1 [compound 6]	> 1000	< 100	–	–
CC(C)OC(=O)N1Cc2cc(Cl)ccc2-n2c(C3CC4(C3)CN(c3cccc(C#N)n3)C4)nnc2C1C (single isomer, unassigned) [Cpd 204B]	> 1000	100 to 500	–	> 1000
CCOC(=O)N1Cc2cc(Cl)ccc2-n2c(nnc2C2CC3(C2)CN(c2ccccn2)C3)C1 [compound 68]	> 1000	< 100	–	–
CCC(=O)N1Cc2cc(Cl)ccc2-n2c(nnc2C2CC3(C2)CN(c2ncc(F)cn2)C3)C1 [compound 157]	> 1000	< 100	–	–
COC(=O)N1Cc2cc(Cl)ccc2-n2c(C3CC4(C3)CN(c3ncncc3F)C4)nnc2C1C (centres unmarked) [compound 183]	100 to 500	–	100 to 500	–
Cc1ccc(N2CC3(CC(c4nnc5n4-c4ccc(Cl)cc4CN(C)C5)C3)C2)nc1 [compound 12]	> 1000	–	100 to 500	–
CCC(=O)N1Cc2cc(Cl)ccc2-n2c(nnc2C2CC3(C2)CN(c2cccc(C)n2)C3)C1 [compound 109]	> 1000	< 100	–	–
COC(=O)N1Cc2cc(Cl)ccc2-n2c(C3CC4(C3)CN(c3ncncc3F)C4)nnc2C1C (centres unmarked) [compound 188]	100 to 500	< 100	–	–
COc1ccc(N2CC3(CC(c4nnc5n4-c4ccc(Cl)cc4CN(C)C5)C3)C2)nc1 [compound 11]	> 1000	–	500 to 1000	–
CN1Cc2cc(Cl)ccc2-n2c(nnc2C2CC3(C2)CN(c2cncc(F)c2)C3)C1 [compound 10]	> 1000	–	100 to 500	–
CN1Cc2cc(Cl)ccc2-n2c(nnc2C2CC3(C2)CN(c2cccnn2)C3)C1 [compound 13]	> 1000	–	100 to 500	–
COc1cccc(N2CC3(CC(c4nnc5n4-c4ccc(Cl)cc4CN(C)C5)C3)C2)n1 [compound 7]	> 1000	–	100 to 500	–
O=C(C(F)F)N1Cc2cc(Cl)ccc2-n2c(nnc2C2CC3(C2)CN(C(=O)C2CC2)C3)C1 [compound 138]	> 1000	< 100	–	–
CC(=O)N1CC2(CC(c3nnc4n3-c3ccc(Cl)cc3CN(C)C4)C2)C1 [compound 15]	> 1000	> 1000	–	–
CN1Cc2cc(Cl)ccc2-n2c(nnc2C2CC3(C2)CN(C(=O)OC(C)(C)C)C3)C1 [compound 9]	500 to 1000	–	100 to 500	–
CCC(=O)N1Cc2cc(Cl)ccc2-n2c(nnc2C2CC3(C2)CN(c2cccnn2)C3)C1 [compound 108]	> 1000	< 100	–	–
CC1c2nnc(C3CC4(C3)CN(c3ccc(F)cn3)C4)n2-c2ccc(Cl)cc2CN1C(=O)OC1CC1 (centres unmarked) [compound 191, cyclopropyl 8-chloro-1-(2-(5-fluoropyridin-2-yl)-2-azaspiro[3.3]heptan-6-yl)-4-methyl-4H-benzo[f][1,2,4]triazolo[4,3-a][1,4]diazepine-5(6H)-carboxylate]	500 to 1000	< 100	–	–
